From US20250136593A1, “DEGRADATION AGENT AND USE THEREOF” (HITGEN INC., priority 2021, published 2025) come the findings set out here.

The structures appear in SMILES notation. A value given as a limit tells only on which side of the number the result lay.

The target of assay [1] is T1, BCL-XL protein in MOLT-4 cells (Homo sapiens, UniProt Q07817).
T1 construct: host or cells: MOLT-4
The assay is described as follows: Degradation effect on BCL-XL protein in MOLT-4 cells by Western Blot. To be noted: 24 hours incubation, corrected by β-actin, read-out: DC50 concentration for BCL-XL protein degradation. The assay is classed as cell-based. The method, then:
Experimental Example 6. Experiment to Evaluate Degradation Effect of Compound on BCL-XL Protein in MOLT-4 Cells by Western Blot Method
SDS-PAGE gel (4-12%) (Genscript), PMSF 100 mM (Biyotime), Cocktail 100× (Biyotime), P/S, RPMI medium modified (Hyclone), FBS (Corning), 4× loading buffer (Thermo), Bcl-xL (54H6) Rabbit mAb (CST), Anti-rabbit IgG-HRP (CST), Anti-β-actin-HRP (Abcam), RIPA (Biyotime), Tween-20, MOLT-4 cell (ATCC), BCA Protein Assay Kit (TIANGEN), Immobilon Western Chemilunescent HRP Substrate (Millipore).
1) Incubation of compound and cells: 1 mL of 10^6 MOLT-4 cells (culture medium: 89% RPMI, 10% FBS, 1% P/S) was inoculated in a 6-well cell culture plate, the compound was subjected to gradient dilution with DMSO, then the compound diluted in DMSO in gradient was diluted again into the MOLT-4 medium, and 1 mL of the diluted compound was directly added to the 6-well plate with the cultured cells and incubated for 24 hours.
2) Protein extraction: After the compound and the cells were co-incubated for 24 hours, the cells were collected and placed in a 1.5 mL centrifuge tube, washed twice with ice-cold PBS, the supernatant was discarded, then 150 μL of RIPA lysis buffer was added and lysis was carried out on ice for 30 minutes; then the cell lysate was centrifuged in a low-temperature centrifuge at 15,000 rpm for 10 minutes, and the supernatant was collected; and BCA Protein Assay Kit was used to quantify the protein in the resulting cell lysate supernatant. 4× loading buffer was added to the cell lysate supernatant and incubated at 85° C. for 10 minutes to obtain a sample. The obtained sample was stored in −80° C. refrigerator for the use on the next day. 20 μg of the sample was taken to perform SDS-Page and transmembrane, 5% skim milk was used to block the membrane for 1 hour, and then Bcl-xL (54H6) rabbit mAb, Anti-rabbit IgG-HRP, Anti-β-actin-HRP were used for incubation. After incubation, Immobilon Western Chemiluminescent HRP Substrate was used for color development, and a gel analyzer was used for analysis.
Analysis was performed with a grayscale analysis software, the amount of BCL-XL protein was corrected by the amount of β-actin, and then Graphpad 6 was used to calculate DC50.
Background: Immunoblotting shows a protein as a band on a membrane.

Another assay relates to MOLT-4 cells. Nature of the assay: Inhibitory activity on MOLT4 cell proliferation by Cell Titer-Glo method. The format is cell-based. Conditions: Homo sapiens, 72 hours incubation, read-out: IC50 concentration for inhibiting MOLT-4 cells. (ATP-based viability assays read luminescence as a measure of living cells.)
The target of assay [2] is ternary complex between BCL-XL and CRBN-DDB1 (Homo sapiens, UniProt Q07817+Q96SW2). The assay is described as follows: Compound-induced formation of ternary complex between BCL-XL and CRBN-DDB1 by AlphaLISA. The format is biochemical. Also noted: key: the number of + indicates the intensity of AlphaLISA peak signal; ++: the number of + indicates the intensity of AlphaLISA peak signal; +++: the number of + indicates the intensity of AlphaLISA peak signal; ++++: the number of + indicates the intensity of AlphaLISA peak signal; +++++: the number of + indicates the intensity of AlphaLISA peak signal. Conditions: peak signal; 60 nM Strep-BCL-XL and 60 nM His-CRBN/DDB1. The method, then: Experimental Example 4, Detection of Compound-Induced Formation of Ternary Complex Between BCL-XL and CRBN-DDB1 by AlphaLISA Method
Chain of ternary complex between BCL-XL and CRBN-DDB1 (Q07817 whole entry): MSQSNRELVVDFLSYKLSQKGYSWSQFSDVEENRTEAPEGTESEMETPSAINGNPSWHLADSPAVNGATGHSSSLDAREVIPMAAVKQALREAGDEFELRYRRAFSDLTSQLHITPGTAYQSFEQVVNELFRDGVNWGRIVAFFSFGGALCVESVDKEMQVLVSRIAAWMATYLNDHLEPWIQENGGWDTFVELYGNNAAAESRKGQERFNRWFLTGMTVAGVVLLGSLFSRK
Chain of ternary complex between BCL-XL and CRBN-DDB1 (Q96SW2 whole entry): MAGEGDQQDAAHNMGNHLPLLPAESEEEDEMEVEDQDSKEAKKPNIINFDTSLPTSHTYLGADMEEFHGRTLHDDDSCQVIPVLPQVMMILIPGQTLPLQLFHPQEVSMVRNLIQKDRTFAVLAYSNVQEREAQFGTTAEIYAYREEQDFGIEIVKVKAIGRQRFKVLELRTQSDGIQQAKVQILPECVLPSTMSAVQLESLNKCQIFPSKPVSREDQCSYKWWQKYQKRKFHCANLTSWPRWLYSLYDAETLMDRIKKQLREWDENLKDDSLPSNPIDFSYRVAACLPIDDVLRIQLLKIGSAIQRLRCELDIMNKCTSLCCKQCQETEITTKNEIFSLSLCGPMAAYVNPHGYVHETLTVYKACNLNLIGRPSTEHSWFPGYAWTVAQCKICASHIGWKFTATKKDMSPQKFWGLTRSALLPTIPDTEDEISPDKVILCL
Chain of ternary complex between BCL-XL and CRBN-DDB1 (Q16531 whole entry partner): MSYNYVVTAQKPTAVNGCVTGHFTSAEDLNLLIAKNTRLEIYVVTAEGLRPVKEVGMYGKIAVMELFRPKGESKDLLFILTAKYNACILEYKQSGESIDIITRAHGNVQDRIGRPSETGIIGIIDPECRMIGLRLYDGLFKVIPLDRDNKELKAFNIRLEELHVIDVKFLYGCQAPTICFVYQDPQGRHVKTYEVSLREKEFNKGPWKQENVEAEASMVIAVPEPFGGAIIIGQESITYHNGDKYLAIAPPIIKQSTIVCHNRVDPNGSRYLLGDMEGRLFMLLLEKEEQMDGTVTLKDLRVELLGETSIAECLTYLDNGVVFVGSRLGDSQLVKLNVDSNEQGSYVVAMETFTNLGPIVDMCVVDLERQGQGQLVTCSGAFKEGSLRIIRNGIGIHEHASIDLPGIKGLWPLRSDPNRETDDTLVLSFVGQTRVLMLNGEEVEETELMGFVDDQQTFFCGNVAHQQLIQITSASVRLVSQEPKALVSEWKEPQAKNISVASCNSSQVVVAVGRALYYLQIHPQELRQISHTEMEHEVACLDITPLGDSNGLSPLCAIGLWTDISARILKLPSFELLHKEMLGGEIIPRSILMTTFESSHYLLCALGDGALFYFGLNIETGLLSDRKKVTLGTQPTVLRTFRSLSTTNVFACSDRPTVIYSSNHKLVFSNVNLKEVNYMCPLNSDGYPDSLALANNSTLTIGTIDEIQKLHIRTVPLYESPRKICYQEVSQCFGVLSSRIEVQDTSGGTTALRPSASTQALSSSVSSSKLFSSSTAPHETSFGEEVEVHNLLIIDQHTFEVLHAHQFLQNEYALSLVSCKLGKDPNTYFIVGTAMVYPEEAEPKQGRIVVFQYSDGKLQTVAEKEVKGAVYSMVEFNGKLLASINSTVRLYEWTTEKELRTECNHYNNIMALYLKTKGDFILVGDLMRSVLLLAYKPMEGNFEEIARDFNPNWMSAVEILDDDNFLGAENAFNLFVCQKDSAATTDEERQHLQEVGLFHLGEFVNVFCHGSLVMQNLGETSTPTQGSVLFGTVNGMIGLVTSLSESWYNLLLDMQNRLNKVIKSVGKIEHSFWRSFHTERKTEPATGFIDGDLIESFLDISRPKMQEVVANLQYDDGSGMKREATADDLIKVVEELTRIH
Na2HPO4(Sigma), NaH2PO4(Sigma), sodium chloride (Sigma), Tween-20 (Sigma), AlphaLISA®Nikel Chelate Acceptor beads (PerkinElmer), Strep-Tactin® Alpha Donor beads (PerkinElmer), Assay plate (Corning), Strep-BCl-XL (HitGen), His-CRBN/DDB1 (HitGen).
DMSO was used to dissolve the dry powder of the test compound to obtain a 10.00 mM solution. The instrument ECHO was used to perform gradient dilution of the compound, which was then added to a 384-well reaction plate (Corning, Cat #3824), so that the final concentration of DMSO in the entire reaction system (10.0 μL) was less than 1%, and the same amount of DMSO was added and used as a control.
Strep-BCl-XL and His-CRBN/DDB1 proteins were dissolved in buffer (10 mM NaH2PO4, 40 mM Na2HPO4, 150 mM sodium chloride, 0.03% Tween20, pH=7.4) to obtain a protein mixture of 60 nM Strep-BCL-XL and 60 nM His-CRBN/DDB1, the protein mixture (5ul/well) was added to the 384-well plate in which the compound had been added, and incubated at room temperature for 30 minutes, then 5 μl of a detection mixture with 50 μg/ml AlphaLISA®Nikel Chelate Acceptor beads and 50 μg/ml Strep-Tactin® Alpha Donor beads was added, and incubated at room temperature for 2 hours; and then a microplate reader was used to detect AlphaLISA signal.
Fifth order polynomial or Sixth order polynomial in Polynomial of Graphpad 6.0 was used for data fitting.
For orientation: Bead proximity is the source of the signal in Alpha formats.

T1 sequence (Q07817 whole entry): as the sequence (Q07817 whole entry) above

For `O=C1CCC(N2C(=O)c3ccc(N4CCN(CC5CCN(CC#Cc6ccc(/C=C/c7ccc(C(=O)N8CCc9cnc(-c%10cnc%11ccccc%11c%10)nc9C8)cc7)cc6)CC5)CC4)cc3C2=O)C(=O)N1` (stereo not shown) [Compound F1B-2], the DC50 in assay [1] fell in the range of 50 to 100 µM. Also, the IC50 with MOLT-4 cells was 50 to 100 µM. The “AlphaLISA signal (PROTAC ternary complex signal intensity)” value (from here on “AlphaLISA signal”) in assay [2] was “+”.

Turning to `O=C1CCC(N2Cc3c(CN4CC5(C4)CN(C4CCN(CC#Cc6ccc(/C=C/c7ccc(C(=O)N8CCc9cnc(-c%10cnc%11ccccc%11c%10)nc9C8)cc7)cc6)CC4)C5)cccc3C2=O)C(=O)N1` (stereo not shown) [Compound F3B-3], the DC50 in assay [1] was < 1 µM. In addition, the IC50 with MOLT-4 cells was in the range of 1 to 10 µM. Further, in assay [2], the “AlphaLISA signal” value is “++”.

With `CNc1nc(-c2cnc3ccccc3c2)nc2c1CCN(C(=O)c1ccc(/C=C/c3ccc(C#CCN4CCN(CCC#Cc5cccc(C6CCC(=O)NC6=O)c5)CC4)cc3)cc1)C2` (stereo not shown) [Compound D2-15], the DC50 in assay [1] is 1 to 10 µM. The IC50 with MOLT-4 cells is < 1 µM.

`O=C1CCC(N2Cc3cc(N4CCC(CN5CCN(CC#Cc6ccc(/C=C/c7ccc(C(=O)N8CCc9cnc(-c%10cnc%11ccccc%11c%10)nc9C8)cc7)cc6)CC5)CC4)ccc3C2=O)C(=O)N1` (stereo not shown) [Compound F2-4]: the DC50 in assay [1] was in the range of 1 to 10 µM. For the same compound, in the assay with MOLT-4 cells, the IC50 is 1 to 10 µM. The “AlphaLISA signal” value in assay [2] was “++”.

In the case of `O=C1CCC(N2Cc3cc(N4CCC(CN5CCN(CC#Cc6ccc(OCC78CC(C(=O)N9CCc%10cnc(-c%11cnc%12ccccc%12c%11)nc%10C9)(C7)C8)cc6)CC5)CC4)ccc3C2=O)C(=O)N1` (stereo not shown) [Compound F2-9], the DC50 in assay [1] lay in the range of 1 to 10 µM. Besides, in the assay with MOLT-4 cells, the IC50 was 50 to 100 µM.
